Measurements: patent US20250090615A1, “MULTIVITAMIN FOR AUXILIARY REGULATION OF BLOOD PRESSURE AND PREPARATION METHOD AND APPLICATION THEREOF” (Changde Jizhi Biological Technology Co., Ltd, priority 2023, published 2025)

Test system: spontaneously hypertensive rats
Assay: Effects on spontaneously hypertensive rats (noninvasive tail artery systolic blood pressure)
Type: in vivo, rat
Conditions: 2-month-old spontaneously hypertensive rats; intragastric once a day for 6 weeks; amlodipine besylate tablets 0.05 mg/kg, multivitamin 600 mg/kg; measured 3 hours after last administration; mean ± spread, n=10
Source text: Experimental animals are 2-month-old spontaneously hypertensive rats.
Experimental methods are as follows. Spontaneous hypertensive rats are taken and randomly divided into a model group and respective experimental groups. Specifically, in experimental group 1, amlodipine besylate tablets are given by intragastric administration at a dose of 0.05 milligrams per kilogram (mg/kg) once a day for 6 weeks. In experimental groups 2-9, amlodipine besylate tablets are given by intragastric administration at a dose of 0.05 mg/kg, and the products of the embodiments or comparative embodiments are given by intragastric administration at a dose of 600 mg/kg once a day for 6 weeks. The model group is given the same volume of distilled water once a day for 6 weeks. At 3 hours after the last administration, systolic blood pressure data are obtained on the computer through the software of noninvasive tail artery blood pressure measuring instrument. Blood pressure of each rat is measured 6-10 times each time, and the mean value is taken as the measured systolic blood pressure of the rat.

Compound: CCOC(=O)C1=C(COCCN)NC(C)=C(C(=O)OC)C1c1ccccc1Cl (stereo not shown) [Experimental group 1, amlodipine besylate]
- 6 weeks 3 h systolic blood pressure: 160.29 ± 2.46
